# Assay results: patent US20130331427A1, “METHODS OF STIMULATING CELLULAR GROWTH, SYNAPTIC, REMODELING AND CONSOLIDATION OF LONG-TERM MEMORY” (Blanchette Rockefeller Neuroscience Institute, priority 2007, published 2013)
# Tests used:
# PKC [1] = assay: PKC activity (histone phosphorylation) in Hermissenda nervous systems; assay type: in vivo
# Protocol: Cells were homogenized by sonication (5 sec, 25 W) in 100 μl of 100 mM Tris-HCL pH 7.4 buffer containing 1 mM EGTA, 1 mM PMSF, and 50 mM NaF. Homogenate was transferred to a polyallomer centrifuge tube and was centrifuged at 100,000×g for 10 min at 4°. The supernatant was removed and immediately frozen on dry ice. The particulate fraction was resuspended by sonication in 100 μl of the same buffer and stored at −80°. To measure PKC, 10 μl of cytosol or particulate fraction was incubated for 15 min at 37° in the presence of 10 μM histones, 4.89 mM CaCl2, 1.2 μg/μl phosphatidyl-L-serine, 0.18 μg/μl 1.2-dioctanoyl-sn-glycerol, 10 mM MgCl2, 20 mM HEPES (pH 7.4), 0-8 mM EDTA, 4 mM EGTA, 4% glycerol, 8 μg/ml aprotinin, 8 μg/ml leupeptin, and 2 mM benzamidine. 0.5 μCi [γ^32-P]ATP was added and ^32P-phosphoprotein formation was measured by adsorption onto phosphocellulose as described previously (25). This assay was used with slight adjustments for either Hermissenda nervous system homogenates or cultured mammalian neuron homogenates.
# Histone phosphorylation (See “Methods”) in isolated circumesophageal nervous systems was then measured in the cytosol fraction. […] (FIG. 12, 13).
# rats = assay: rat spatial (water) maze learning and memory; assay type: in vivo
# dendritic spines = dendritic spines of rats trained in a spatial maze task; assay type: in vivo, rat
# Excerpt: On retention day 2, confocal microscopy and […] were used to study filopodia and dendritic spines: mushroom, thin and stubby spines (Panel A).
# ELAV = assay: acute hippocampal slices, nuclear export of ELAV; assay type: cell-based; conditions: 120-min incubation
# CA1 neurons = assay: acute hippocampal slices, number of dendritic spines (spinophilin); assay type: cell-based; conditions: 0.1 nM, spine marker spinophilin
# [2] = cited from earlier work
# PKC [3] = conditions: cited from earlier work
# Rat IGF-IR cells = assay: overall protein synthesis, [35S]methionine incorporation; conditions: single 30-minute exposure to 0.28 nM
# Protocol: [^35S]Methionine (9.1 μCi) was then added to the medium followed by analysis of radiolabel.
smiles,measurement,setting,value
"CCC/C=C/C=C/C(=O)O[C@H]1/C(=C/C(=O)OC)C[C@H]2C[C@H]([C@@H](C)O)OC(=O)C[C@H](O)C[C@@H]3C[C@H](OC(C)=O)C(C)(C)[C@](O)(C[C@@H]4C/C(=C/C(=O)OC)C[C@H](/C=C/C(C)(C)[C@]1(O)O2)O4)O3 [bryostatin, bryostatin-1]","PKC activity, cytosol fraction","PKC [1]; 0.28 nM, 4 hour exposures, 10 minutes and 24 hours after the second of two exposures",significantly increased over baseline levels
same,"PKC activity, membrane fraction",PKC [1]; 24 hours after the second of two exposures,significantly increased over baseline
same,latency to reach the platform,"rats; 10 μg/kg i.p. 20 min before training on day 1, 3, 5, vs. controls",greatly reduced
same,number of target crossings,rats; retention Day 1,similarly enhanced
same,time to reach the target quadrant,"rats; retention day 1, 24 hours after all training",reduced
same,filopodia or thin spines,dendritic spines; all conditions,no changes
same,number of stubby spines,dendritic spines; bryostatin alone (without training),augmented
same,total numbers of filopodia and (all shape) spines,dendritic spines; only bryostatin,similarly increased
same,water-maze-induced increase in number of mushroom spines,"dendritic spines; retention day 2, training plus bryostatin",enhanced
same,increase in total numbers of filopodia and spines,dendritic spines; water maze rats also treated with bryostatin,enhanced
same,ELAV transport,ELAV,significantly transported to dendrites
same,number of dendritic spines,CA1 neurons,augmented
same,number of dendritic spines,CA1 neurons; listed as Bryostatin,increased
same,tolerability,[2]; 20 μg/m^2 once per week for 3 weeks,well tolerated
same,maximum-tolerated dose,[2]; 1 hour i.v. infusion once every 2 weeks for 6 weeks,50 μg/m^2
same,maximum tolerated dose,[2]; once per week for 8 weeks,25 μg/m^2
same,"myalgia reported, share of all treated patients",[2]; phase II clinical trials,10 to 87%
same,concentrations that activate PKC,PKC [3],sub-nanomolar
same,increase of overall protein synthesis,Rat IGF-IR cells; by 79 hours,60%
same,increase of overall protein synthesis,Rat IGF-IR cells; within 24 h,20%
